Article PMC6366974, “The curcumin analog EF24 is a novel senolytic agent” (Aging (Albany NY), 2019)

Tests used:
[1] = tested on: WI-38 IR-induced senescent cells (IR-SCs); assay: Cell viability assay (flow cytometry, PI); assay type: cell-based, human; conditions: WI-38, 72 h; for EC50: Homo sapiens
Experimental: (§1) Human WI-38 fibroblasts (WI-38, Cat. No. CCL-75), human IMR-90 fibroblasts (IMR-90, Cat. No. CCL-186), human umbilical vein endothelial cells (HUVEC, Cat. No. CRL-1730), human renal epithelial cells (HREC, Cat. No. PCS-400-012) and human pre-adipocytes (Cat. No. PCS-210-010) were newly purchased from the American Type Culture Collection (ATCC, Manassas, VA, USA). WI-38 and IMR-90 cells were cultured in complete Dulbecco’s modified Eagle medium (DMEM, Cat. No. 12430054, Thermo Fisher Scientific, Waltham, MA, USA) supplemented with 10% heat-inactivated fetal bovine serum (FBS, Cat. No. S11150H, Atlanta Biologicals, Flowery Branch, GA, USA), 100 U/mL penicillin and 100 µg/mL streptomycin (Pen Strep, Cat. No. 15140122, Thermo Fisher Scientific, Waltham, MA, USA) in a humidified incubator at 37°C and 5% CO2. HUVEC were cultured in EGM-2 BulletKit (Cat. No. CC-3162, Lonza, Basel, Switzerland) containing basal medium supplemented with growth factors, cytokines and other supplements according to the manufacturer’s protocol. HREC were cultured in renal epithelial cell basal medium (Cat. No. PCS-400-030, ATCC, Manassas, VA, USA) supplemented with renal epithelial cell growth kit (Cat. No. PCS400040, ATCC, Manassas, VA, USA). Human pre-adipocytes were cultured in fibroblast basal medium (Cat. No. PCS-201-030, ATCC, Manassas, VA, USA) supplemented with fibroblast growth kit-low serum (Cat. No. PCS201041, ATCC, Manassas, VA, USA). EF24 (Cat. No. E8409) and HO-3867 (Cat. No. S7501) were purchased from Sigma-Aldrich (St. Louis, MO, USA) and Selleckchem (Houston, TX, USA), respectively. DIMC (Cat. No. 10009986) and 2-HBA (Cat. No. 11879) were both purchased from Cayman Chemical (Ann Arbor, MI, USA).
(§2) Three different methods were used for the induction of SCs, including replicative exhaustion, ionizing radiation and ectopic Ras expression as previously described. Briefly, low-passage WI-38 cells (< 25 passages), IMR-90 cells (< 25 passages), HUVEC (< 10 passages), HREC (< 10 passages) and pre-adipocytes (< 4 passages) were used as NCs or for the induction of senescence. To induce replicative senescence (Rep-SCs), WI-38 and IMR-90 fibroblasts, HUVEC, HREC and pre-adipocytes were subcultured until they stopped to divide and became permanently growth arrested senescence after 38 passages (WI-38), 38 passages (IMR-90), 22 passages (HUVEC), 30 passages (HREC) and 10 passages (pre-adipocytes), respectively. To induce SCs by ionizing radiation (IR-SCs) and ectopic expression of Ras (Ras-SCs), WI-38 NCs were treated as previously described.
(§3) Number of viable cells were quantified using flow cytometry as previously described with slight modifications. Specifically, NCs and SCs were incubated with vehicle (0.1% DMSO) or a test compound at indicated concentrations for 72 h. Following dissociation with 0.25% Trypsin-EDTA (Cat. No. 25200056, Thermo Fisher Scientific, Waltham, MA, USA) at 37°C for 5 min, the cells were harvested in 100 µl pre-cooled phosphate buffered saline (PBS, Cat. No. 20012027, Thermo Fisher Scientific, Waltham, MA, USA) containing 2% FBS and 100 ng/mL propidium iodide (PI, P4170, Sigma-Aldrich, St. Louis, MO, USA) and analyzed using flow cytometry (LSR II, BD Biosciences, San Jose, CA, USA). Percentage of viable cells were determined by counting the number of PI negative cells (viable cells) and then calculated as a ratio of control cells treated with vehicle. In addition, dose-response curves were generated for each compound, and the concentration for 50% of maximal effect (EC50 values) was calculated using GraphPad Prism 6.

[2] = tested on: WI-38 non-senescent cells (NCs); assay: Cell viability assay (flow cytometry, PI); assay type: cell-based, human; conditions: for EC50: Homo sapiens, WI-38, 72 h
Experimental: as §1, §2, §3

[3] = tested on: WI-38 Ras-induced senescent cells (Ras-SCs); assay: Cell viability assay (flow cytometry, PI); assay type: cell-based, human; conditions: 72 h
Experimental: as §1, §2, §3

WI-38 NCs = assay: Apoptosis analysis (Annexin-V/PI flow cytometry); assay type: cell-based, human; conditions: 2 µM, 72 h
Experimental: (§4) WI-38 NCs and SCs were treated with vehicle or 10 µM Q-VD-OPh (QVD, Cat. No. S7311, Selleckchem, Houston, TX, USA) for 4 h prior to the addition of vehicle or 2 µM EF24 for 72 h. The suspending cells were first harvested from the culture and then pooled with the adherent cells detached by 0.25% Trypsin-EDTA at 37°C for 5 min in 12 × 75 mm polystyrene round-bottom tubes (Cat. No. 352058, Falcon, Corning, NY, USA) containing complete DMEM medium. The cells were stained with Alexa Fluor 647-Annexin V (1: 50, Cat. No. 640912, BioLegend, San Diego, CA, USA) and PI (10 µg/mL, Cat. No. 421301, BioLegend, San Diego, CA, USA) at room temperature for 30 min. The stained cells were analyzed using a BD LSR II flow cytometer.

WI-38 IR-SCs = assay: Apoptosis analysis (Annexin-V/PI flow cytometry); assay type: cell-based, human; conditions: 2 µM, 72 h
Experimental: as §4

IMR-90 fibroblasts NCs = assay: Cell viability assay (flow cytometry, PI); assay type: cell-based; conditions: Homo sapiens, IMR-90, 72 h
Experimental: as §1, §2, §3

HUVEC NCs = assay: Cell viability assay (flow cytometry, PI); assay type: cell-based; conditions: Homo sapiens, 72 h
Experimental: as §1, §2, §3

[4] = tested on: IMR-90 fibroblasts Rep-SCs; assay: Cell viability assay (flow cytometry, PI); assay type: cell-based; conditions: Homo sapiens, IMR-90, 72 h
Experimental: as §1, §2, §3

HREC NCs = assay: Cell viability assay (flow cytometry, PI); assay type: cell-based; conditions: Homo sapiens, 72 h
Experimental: as §1, §2, §3

pre-adipocytes NCs = assay: Cell viability assay (flow cytometry, PI); assay type: cell-based; conditions: Homo sapiens; Pre-adipocyte, 72 h
Experimental: as §1, §2, §3

pre-adipocytes Rep-SCs = assay: Cell viability assay (flow cytometry, PI); assay type: cell-based; conditions: Homo sapiens; Pre-adipocyte, 72 h
Experimental: as §1, §2, §3

[5] = tested on: WI-38 replication-exhausted senescent cells (Rep-SCs); assay: Cell viability assay (flow cytometry, PI); assay type: cell-based; conditions: Homo sapiens; WI-38, 72 h, Table 2
Experimental: as §1, §2, §3

HREC Rep-SCs = assay: Cell viability assay (flow cytometry, PI); assay type: cell-based; conditions: Homo sapiens, 72 h
Experimental: as §1, §2, §3

HUVEC IR-SCs = assay: Cell viability assay (flow cytometry, PI); assay type: cell-based; conditions: Homo sapiens, 72 h

How did the EC50 ([1]; Table 2) turn out when O=C1/C(=C/c2ccccc2F)CNC/C1=C\c1ccccc1F [EF24] was run?
Its EC50 is 1740 nM.

What about the EC50 ([1]; WI-38 IR-SCs, 72 h, Table 1 screen of curcumin analogs) of the same compound?
The EC50 was 1620 nM.

What about the “selective toxicity against IR-SCs versus NCs (viability)” value [1] of the same compound?
The value was “lesser toxicities to NCs”.

And the EC50 ([2]; Table 2)?
The EC50 was 4.32 µM.

And the EC50 ([2]; WI-38 NCs, 72 h, Table 1 screen of curcumin analogs)?
Its EC50 is 4.69 µM.

And the “effect on the cell viability of WI-38 NCs” value ([2]; below 4 μM, 72 h)?
The value was “minimal effect”.

What about the “sensitivity of WI-38 Ras-SCs compared with Rep-SCs and IR-SCs” value [3] of the same compound?
Its value is “highest sensitivity”.

What about the “induction of apoptosis in NCs” value (WI-38 NCs) of the same compound?
The value was “did not induce apoptosis”.

And the “number of PI positive cells representing necrotic cells in IR-SCs” value (WI-38 IR-SCs)?
Its value is “not any significant changes”.

And the “number and percentage of Annexin-V positive apoptotic cells in IR-SCs” value (WI-38 IR-SCs; compared to vehicle)?
Its value is “significantly increased”.

And the EC50 (IMR-90 fibroblasts NCs)?
The EC50 was 10.9 µM.

What about the EC50 (HUVEC NCs) of the same compound?
The EC50 was 1390 nM.

What about the EC50 [4] of the same compound?
The EC50 was 330 nM.

What about the EC50 (HREC NCs) of the same compound?
The EC50 was 3.25 µM.

What about the EC50 (pre-adipocytes NCs) of the same compound?
The EC50 was 8.92 µM.

And the EC50 (pre-adipocytes Rep-SCs)?
The EC50 was 4.6 µM.

And the EC50 [5]?
Its EC50 is 1260 nM.

And the EC50 (HREC Rep-SCs)?
The EC50 was 600 nM.

And the EC50 (HUVEC IR-SCs)?
Its EC50 is 2090 nM.
